In patent US20050204416A1, “Plant cells having receptor polypeptides” (priority 2004, published 2005):

Columns and labels:
[1] = target: T1, VP16-human estrogen receptor alpha (ERa) chimeric polypeptide (Homo sapiens, UniProt P03372, G400V)
Experimental: About 50 selected lines were obtained and cultured at 27° C. on N6 media containing 5 mg/ml bialaphos, with transfer to fresh media occurring about every 2 weeks. […] After incubation for about 40 hours, callus cells were examined under a dissecting microscope at 10× to 60× magnification.

[2] = target: T1, VP16-human estrogen receptor alpha (ERa) chimeric polypeptide; assay: Transgenic Arabidopsis T2 seedlings containing VP16ERα and ERE-GFP constructs, green fluorescence; assay type: cell-based; set-up: expressed in transfected cells; host or cells: transgenic rice callus (A1); transgenic Arabidopsis T2 seedlings (A2); Agrobacterium binary vector Bin4-EUTG-10::VPCR-ER-1#81, CaMV35S promoter

T1 sequence (P03372 with tags, fused parts or gaps G400V): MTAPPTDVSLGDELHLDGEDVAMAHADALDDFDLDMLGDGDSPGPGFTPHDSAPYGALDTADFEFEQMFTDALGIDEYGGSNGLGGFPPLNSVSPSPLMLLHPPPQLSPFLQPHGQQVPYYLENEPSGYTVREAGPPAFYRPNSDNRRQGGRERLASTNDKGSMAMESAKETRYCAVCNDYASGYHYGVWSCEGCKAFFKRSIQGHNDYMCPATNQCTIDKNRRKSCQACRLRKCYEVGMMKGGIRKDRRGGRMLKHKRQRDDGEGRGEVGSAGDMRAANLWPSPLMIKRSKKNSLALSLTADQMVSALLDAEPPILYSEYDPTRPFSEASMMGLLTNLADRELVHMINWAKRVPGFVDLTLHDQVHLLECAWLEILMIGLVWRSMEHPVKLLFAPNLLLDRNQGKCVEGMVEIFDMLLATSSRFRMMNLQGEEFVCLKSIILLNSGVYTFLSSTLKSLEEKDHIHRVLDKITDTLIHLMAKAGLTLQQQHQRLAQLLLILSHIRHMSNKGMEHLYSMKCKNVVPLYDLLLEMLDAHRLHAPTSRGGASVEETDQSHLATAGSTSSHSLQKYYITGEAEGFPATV

4-hydroxytamoxifen
green fluorescence (GFP reporter) in the presence of the exogenous compound [1]: moderate to very bright green fluorescence
green fluorescence (GFP reporter) of T2 seedlings [2]: moderate to strong green fluorescence
